Test results from patent publication US11319300B2, “Polyfluoro-substituted aromatic heterocyclic derivative, pharmaceutical composition containing same, and applications thereof” (ZHEJIANG UNIVERSITY, priority 2017, dated 2022).
Marks after values point to notes of the source that are not given here.

What was measured:
MCF-7 = assay: Tumour cell proliferation inhibition, MTT assay, MCF-7; type: cell-based, human; settings: 72 hours
HCT-116 = assay: Tumour cell proliferation inhibition, MTT assay, HCT-116; type: cell-based, human; settings: 72 hours
Procedure: Compound AZD5363 (NCT02208375, NCT02208375, NCT01625286), which have entered the clinical phase II study, was used as a positive control, and the compound was assayed against common tumour cell lines (human ovarian cancer cell line OVCAR-8 and human colon cancer cell line HCT-116) by MTT assay, at the same time, the akt1 enzyme inhibitory activity (IC50) was evaluated using a commercial Akt1 kit.
1) The pharmacological test method for the tumour cell proliferation inhibiting activity of the compound of the present invention was as follows:
The first was the determination of in vitro tumour growth inhibitory activity and the preliminary structure-activity relationship study, and different solid tumour cell lines were used to determine the in vitro antitumour activity of the synthesized compounds.
Experimental materials: cell lines: human ovarian cancer cells (OVCAR8), colon adenocarcinoma cells (HCT-116),
Medium: OVCAR8: RPMI 1640+fetal calf serum
Drug preparation method: dissolving the drug in DMSO to make a 50 mM of stock solution, and diluting it to a certain ratio to obtain 5 different concentrations.
Tumour Cells being Cultured In Vitro:
The selected tumour cells were incubated in a, 5% of CO2 cell incubator at 37° C., and passaged until the cell density was 70 to 90% (the adherent cells were passaged with Duck's EDTA) and used for subsequent experiments.
The compound was dissolved in dimethyl sulfoxide (DMSO), diluted, and tumour cells were seeded into 4000 cells/200 μL/well in 96-well plates, and 1 μL of compound was added to each well to a final concentration of 50 μM, 10 μM, 2 μM, and 0.4 μM. 0.08 μM were incubated in a, 5% of CO2 cell incubator at 37° C. for 72 hours with DMSO (1%) as a blank control.
The calculation formula of the cell inhibition rate is: cell inhibition rate %=(control group OD value−drug group OD value)/control cell OD value×100%, and the half inhibition concentration (IC50) was determined by the Bliss method.

CEM-C1 = assay: Tumour cell proliferation inhibition, MTT assay, CEM-C1; type: cell-based, human; settings: 72 hours
[1] = Oral pharmacokinetic experiment in SD rats; type: in vivo; settings: oral administration; for 1/2 / AUC0-inf / AUC0-t / Cmax / Tmax: 20 mg/kg, mean n = 3; for Cmax / Tmax: rat
Procedure: […] The blood sampling times of the tail vein administered by intragastric administration were 0.25, 0.5, 1, 2, 4, 6, 8, 10, 24 hours; the times of blood collection by intravenous administration were 0.05, 0.1, 0.17, 0.5, 1, 2, 4, 6, 8, 10, 24 hours. 0.3 ml of whole blood was taken, and after centrifugation, 0.1 ml of plasma was taken and analysed by LC-MS.

HGC27 = assay: Tumour cell proliferation inhibition, MTT assay, HGC27; type: cell-based, human; settings: 72 hours
hERG potassium channel = biological target: T1, hERG potassium channel (Homo sapiens, UniProt Q12809); assay: hERG potassium channel inhibition, manual whole-cell patch clamp in CHO hERG cells; type: cell-based; settings: for hERG (Inhibition rate at 3 μM concentration): CHO hERG cells, patch clamp
T1 construct: host or cells: CHO
T1 sequence (Q12809 whole entry): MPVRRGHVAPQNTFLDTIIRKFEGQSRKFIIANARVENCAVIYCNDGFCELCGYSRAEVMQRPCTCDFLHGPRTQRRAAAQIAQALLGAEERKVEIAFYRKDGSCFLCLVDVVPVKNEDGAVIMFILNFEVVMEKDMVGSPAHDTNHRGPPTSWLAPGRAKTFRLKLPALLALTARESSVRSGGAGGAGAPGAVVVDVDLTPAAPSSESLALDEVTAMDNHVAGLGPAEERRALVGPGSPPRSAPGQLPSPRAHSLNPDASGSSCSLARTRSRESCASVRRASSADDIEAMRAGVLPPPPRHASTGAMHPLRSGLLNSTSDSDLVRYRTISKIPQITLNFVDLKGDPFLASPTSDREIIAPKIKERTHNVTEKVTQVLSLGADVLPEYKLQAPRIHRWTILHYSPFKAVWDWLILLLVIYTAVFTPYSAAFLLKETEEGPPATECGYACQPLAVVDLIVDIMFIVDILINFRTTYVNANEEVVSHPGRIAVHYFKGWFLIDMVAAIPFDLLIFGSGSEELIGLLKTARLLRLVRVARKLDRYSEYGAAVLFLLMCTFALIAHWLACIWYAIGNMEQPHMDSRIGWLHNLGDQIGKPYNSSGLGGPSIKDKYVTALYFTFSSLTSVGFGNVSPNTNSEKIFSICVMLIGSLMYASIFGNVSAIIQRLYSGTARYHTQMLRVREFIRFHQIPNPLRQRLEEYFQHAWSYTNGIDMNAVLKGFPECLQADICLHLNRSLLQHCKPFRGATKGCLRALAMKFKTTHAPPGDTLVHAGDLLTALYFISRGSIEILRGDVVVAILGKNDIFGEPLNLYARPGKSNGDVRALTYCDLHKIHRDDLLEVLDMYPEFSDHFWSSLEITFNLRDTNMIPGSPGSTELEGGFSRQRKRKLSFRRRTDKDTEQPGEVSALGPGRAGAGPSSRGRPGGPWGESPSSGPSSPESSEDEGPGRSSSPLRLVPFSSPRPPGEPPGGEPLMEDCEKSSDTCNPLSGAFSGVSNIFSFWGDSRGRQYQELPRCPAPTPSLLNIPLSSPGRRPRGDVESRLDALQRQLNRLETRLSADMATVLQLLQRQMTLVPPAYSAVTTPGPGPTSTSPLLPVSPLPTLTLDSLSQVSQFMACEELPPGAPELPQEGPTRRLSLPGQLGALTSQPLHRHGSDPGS
Procedure: A Sixty-Third Embodiment: hERG Potassium Channel Inhibition Activity Experiment
The cells used in this assay were CHO cell lines transfected with hERG cDNA and stably expressing the hERG channel (supplied by Sophion Bioscience, Denmark). The cells were cultured in medium containing the following components (all from Invitrogen): Ham's F12 medium, 10% (v/v) inactivated fetal bovine serum, 100 μg/ml hygromycin B, and 100 μg/ml Geneticin. 2.1.2CHO hERG cells were grown in a Petri dish containing the above culture solution, and cultured in an incubator containing 5% of CO2 at 37° C. 24 to 48 hours prior to electrophysiological experiments, CHO hERG cells were transferred to circular glass slides placed in petri dishes and grown under the same culture and culture conditions as above. The density of CHO hERG cells on each circular slide requires that most cells achieve independent, individual requirements.
2. Compound Treatment and Dilution
To obtain the IC50 of the compound, we selecte the following concentrations (30, 10, 3, 1, 0.3, and 0.1 μM) for testing. Prior to testing, the […] were first diluted to 10, 3, 1, 0.3, and 0.1 mM stock solution in gradual dilution with DMSO and then diluted to the final μM test concentration with extracellular fluid. The final concentration of DMSO in each of the other compound solutions was 0.1% except that the DMSO concentration in the 30 μM compound test solution was 0.3%. The positive control Cisapride (cishabili) was tested at a concentration of 0.1 μM. All compound solutions were sonicated and shaken for 5 to 10 minutes to ensure complete dissolution of the compound.
3. Electrophysiological Recording System and Data Analysis
This experiment uses a manual patch clamp system (HEKA EPC-10 signal amplifier and digital conversion system, purchased from HEKA Electronics, Germany) for the recording of whole cell currents. Round slide with CHO hERG cells on the surface was placed in an electrophysiology recording cell under an inverted microscope. The extracellular fluid was continuously perfused in the recording tank (about 1 ml per minute). The experimental procedure uses conventional whole-cell patch clamp current recording techniques. Unless otherwise stated, the experiments were carried out at regular room temperature (˜25° C.). The cells were clamped at a voltage of −80 mV. The cell clamp voltage was depolarized to +20 mV to activate the hERG potassium channel, and after 5 seconds it was clamped to −50 mV to eliminate inactivation and generate tail current. The tail current peak was used as the value of the hERG current magnitude. After the hERG potassium current recorded in the above step was stabilized under the continuous extracellular fluid perfusion in the recording tank, the drug to be tested can be superimposed and filled until the inhibitory effect of the drug on the hERG current reaches a steady state. Generally, the recent three consecutive current recording lines were recombined as a criterion for judging whether or not the state is stable. After reaching a steady state, extracellular fluid perfusion rinse until hERG current returns to the size before adding drug. One cell can test one or more drugs, or multiple concentrations of the same drug, but need to be flushed with extracellular fluid between different drugs. Cisapride (cisapride, purchased from Sigma) was used in the experiment as a positive control to ensure that the cells used were of normal quality. The test data was analysed by HEKA Patchmaster, Microsoft Excel and data analysis software provided by Graphpad Prism.

786-O = assay: Tumour cell proliferation inhibition, MTT assay, 786-O; type: cell-based, human; settings: 72 hours
[2] = tested on: human gastric cancer HGC27 nude mice xenografts; assay: In vivo antitumour activity, human gastric cancer HGC27 nude mice xenografts; settings: HGC27 xenograft, 50 mg/kg intragastric once a day; for Tumour volume D1: D1 (start)
Procedure: (§1) A Sixty-Fifth Embodiment: In Vivo Antitumour Activity of Compounds
(§2) 1) Establishment of a nude mouse xenograft model: 1×10^7 test tumour cells were injected into the armpit of nude mice, after three generations, HGC27 mouse tumour blocks were dissected and placed in a glass dish containing physiological saline, after the necrotic area was removed by incision, the tumour mass was cut into 1-2 mm^3 and inserted into the left axilla of the nude mouse with a trocar.
(§3) 2) Animal grouping and drug delivery arrangements: after the tumour grows to an average volume of 100-300 mm^3, 20 mice were randomly grouped according to the tumour volume, and the above test animals were given the corresponding test substances by intragastric administration at a dose of 10 mL/kg with once a day.
(§4) 3) Data measurement and statistics: The tumour volume was weighed and measured twice and dosing period was 21 days. On the 22nd day, after the body weight was weighed and the tumour volume was measured, the nude mice were sacrificed and the tumours were weighed to calculate the relative tumour volume (RTV), relative tumour growth rate (T/C) and tumour inhibition percentage (IR) for statistical testing. The calculation formula was as follows: (a) TV (tumour volume)=½×a×b^2, wherein a and b represent the length and width of the tumour respectively, (b) RTV (relative tumour volume)=Vt/V0, Where V0 is the tumour volume measured at the time of group administration (i.e. d0), Vt is the tumour volume at each measurement, (c) T/C (%)=TRTV/CRTV×100%, wherein TRTV is the RTV of treatment group, CRTV is the RTV of the solvent control group, (d) IR (%)=(1−TWt/TWc)×100%, wherein TWt is the tumour weight of the treatment group, and TWc is the tumour weight of the solvent control group.

[3] = tested on: human ovarian cancer SKOV3 nude mice xenografts; assay: In vivo antitumour activity, human ovarian cancer SKOV3 nude mice xenografts; settings: SKOV3 xenograft, 50 mg/kg
[4] = tested on: human kidney cancer 786-O nude mice xenografts; assay: In vivo antitumour activity, human kidney cancer 786-O nude mice xenografts; settings: 786-O xenograft; for Tumour volume D1: D 1 (start); for Tumour volume D1 / RTV: x ± SE; for Tumour volume D 21: D 21, x ± SE
Procedure: [Worded in the source for another cell line; this cell line is reported under the same test.] as §1, §2, §3, §4

[5] = same concentration (3 μM), ratio of inhibition rates

## Cn1nccc1-c1ccc(C(=O)N[C@@H]2CNCC[C@H]2c2ccc(F)c(F)c2)c(F)c1 [VII-1a]
MCF-7
  IC50: 2250 nM
HCT-116
  IC50: 1340 nM
CEM-C1
  IC50: 100 nM
[1]
  1/2: 3.34 h
  AUC0-inf: 1500 ng·h/mL
  AUC0-t: 1480 ng·h/mL
[1]; plasma
  Cmax: 132 ng/mL
  Tmax: 4.17 h
HGC27
  IC50: 40 nM
hERG potassium channel
  hERG (Inhibition rate at 3 μM concentration): 15.9%
786-O
  IC50: 560 nM
[2]
  RTV: 11.37 ± 3.07
  T/C(%): 26.95%
  Tumour volume D1: 213 ± 102 mm^3
  Tumour volume D22: 1498 ± 206* mm^3

## Cn1nccc1-c1ccc(C(=O)N[C@@H]2CNCC[C@H]2c2ccc(F)c(F)c2)c(F)c1.O=C(O)C[C@H](O)C(=O)O [VII-30]
[3]
  T/C(%): 32.96%
[3]; D 1 (start), x ± SE
  Tumour volume D1: 117 ± 65 mm^3
[3]; D 22, x ± SE
  Tumour volume D22: 248 ± 19* mm^3
[3]; x ± SE
  RTV: 3.60 ± 2.67
[1]
  1/2: 3.63 h
  AUC0-inf: 2390 ng·h/mL
  AUC0-t: 2350 ng·h/mL
[1]; salt versus free form VII-1a
  improvement of AUC0-t over VII-1a: 58%
[1]; in vivo
  Cmax: 253 ng/mL
  Tmax: 1.75 h
hERG potassium channel
  hERG (Inhibition rate at 3 μM concentration): 20%
hERG potassium channel; [5]
  hERG blocking effect relative to GSK2141795: 0.4
  hERG blocking effect relative to compound 31 (WO2015/144021A1): 0.32
[2]
  RTV: 7.29 ± 3.03
  T/C(%): 17.27%
  Tumour volume D1: 215 ± 88 mm^3
  Tumour volume D22: 1157 ± 452* mm^3
[4]; 50 mg/kg
  T/C(%): 22.86%
  Tumour volume D1: 125 ± 14 mm^3
  Tumour volume D 21: 328 ± 105** mm^3
  RTV: 2.62 ± 0.83
[4]; 100 mg/kg
  T/C(%): 9.26%
  Tumour volume D1: 126 ± 13 mm^3
  Tumour volume D 21: 127 ± 51** mm^3
  RTV: 1.06 ± 0.43
